Among the data in PubChem BioAssay AID1053168 (Broad Institute, 2014) are activity change, negative = inhibition and AC50 values, retold here.

A short description of experiment [1]: Vaccinia infected cells, stage specific inhibitors, mcherry venus reporter fluorescence, confirmatory dose response (AID 1053168). The note with it: Vaccinia-infected cells, mCherry/Venus stage reporter fluorescence; at 21 µM (top of the series).
Experiment [2] relates to Vaccinia-infected cells, mCherry/Venus stage reporter fluorescence. The experiment is described as above.
Setting [3] is: measured here: Venus reporter AC50.
Setting [4] is: measured here: mCherry reporter AC50.

The source made the active and inactive calls. No rule for the calls is given here.

The term AC50 denotes the concentration at which the activity in the assay is half-maximal.

As to `CN(C)C(=O)c1ccc(-c2cccc(-c3nc(C(=O)NC4CCCCC4)cc4c3[C@@H](CCO)N([S@](=O)C(C)(C)C)C4)c2)cc1`, the activity change, negative = inhibition in experiment [1] was -8.97% (inactive). The same measure, in the same setting: next, `C[C@H](O)C#Cc1ccc2c(c1)O[C@@H](CN(C)Cc1ccccc1)[C@@H](C)CN([C@@H](C)CO)S2(=O)=O`: -2.82% (inactive). On the same count and under the same terms, next, `CN1c2ccc(C#Cc3cccnc3)cc2[C@H]2[C@H](CCN2C(=O)C2CCC2)[C@@H]1CO`: -15.9% (inactive).

As to `C[C@H](O)C#Cc1ccc2c(c1)O[C@@H](CN(C)Cc1ccccc1)[C@@H](C)CN([C@H](C)CO)S2(=O)=O`, the activity change, negative = inhibition in experiment [1] is 16.5% (inactive). The same measure, in the same setting: the result for `C[C@@H](O)C#Cc1ccc2c(c1)O[C@@H](CN(C)Cc1ccncc1)[C@@H](C)CN([C@@H](C)CO)S2(=O)=O` reads 1.8% (inactive); that for `C[C@H](CO)N1C[C@H](C)[C@@H](CN(C)S(=O)(=O)c2ccc(Cl)cc2)Oc2c(NS(=O)(=O)c3cn(C)cn3)cccc2C1=O`, -2.63% (inactive); that for `CN(C)C(=O)c1ccc(-c2cccc(-c3nc(C(=O)NC4CCCC4)cc4c3[C@H](CCO)N([S@@](=O)C(C)(C)C)C4)c2)cc1`, -8.2% (inactive).

Consider `CN1c2ccc(C#Cc3cccnc3)cc2[C@@H]2[C@@H](CCN2C(=O)C2CCC2)[C@@H]1CO`, for which the activity change, negative = inhibition in experiment [1] is 10.1% (inactive).

In the case of `C[C@H]1CN([C@@H](C)CO)S(=O)(=O)c2ccc(C#CC(C)(C)O)cc2O[C@H]1CN(C)Cc1ccc(-c2ccccc2)cc1`, the values for the concentration at half-maximal activity (AC50) in experiment [2], in experiment [2] (setting [3]) and in experiment [2] (setting [4]) were 14.9 µM, 16.6 µM and 14.9 µM, respectively.

`COc1ccccc1CN1CC[C@@H]2[C@@H](CO)Nc3ccc(C#Cc4ccccc4)cc3[C@@H]21`: the AC50 in experiment [2] and in experiment [2] (setting [4]) was 20.9 µM in each case. `CN1c2ccc(-c3ccc(C#N)cc3)cc2[C@H]2[C@H](CCN2C(=O)C2CCCCC2)[C@@H]1CO`: the AC50 in experiment [2] is 18.9 µM; in experiment [2] (setting [3]), 20.5 µM; in experiment [2] (setting [4]), 18.9 µM. Take `COc1ccccc1CN1CC[C@@H]2[C@H]1c1cc(C#Cc3ccccc3)ccc1N[C@@H]2CO`: the AC50 in experiment [2] and in experiment [2] (setting [4]) was 20.7 µM in each case. Consider `N#Cc1ccc(-c2ccc3c(c2)[C@H]2[C@H](CCN2C(=O)C2CCCCC2)[C@H](CO)N3)cc1`, for which the concentration at half-maximal activity (AC50) in experiment [2] and in experiment [2] (setting [4]) was 20.8 µM in each case. For `C[C@H](O)C#Cc1ccc2c(c1)O[C@@H](CN(C)Cc1ccc(-c3ccccc3)cc1)[C@H](C)CN([C@@H](C)CO)S2(=O)=O`, the half-maximal activity concentration (AC50) in experiment [2] was 21.8 µM; in experiment [2] (setting [3]), 20.5 µM; in experiment [2] (setting [4]), 21.8 µM. As to `C[C@H](O)C#Cc1ccc2c(c1)O[C@H](CN(C)Cc1ccc(-c3ccccc3)cc1)[C@@H](C)CN([C@@H](C)CO)S2(=O)=O`, the AC50 in experiment [2] is 16.4 µM; in experiment [2] (setting [3]), 15.9 µM; in experiment [2] (setting [4]), 16.4 µM. Take `C[C@H](O)C#Cc1ccc2c(c1)O[C@H](CN(C)Cc1ccc(-c3ccccc3)cc1)[C@H](C)CN([C@H](C)CO)S2(=O)=O`: the AC50 is 17.1 µM in experiment [2], 20.3 µM in experiment [2] (setting [3]) and 17.1 µM in experiment [2] (setting [4]). For `COc1ccccc1-c1ccc2c(c1)[C@H]1[C@H](CCN1C(=O)C1CCCCC1)[C@@H](CO)N2`, the concentration at half-maximal activity (AC50) in experiment [2] and in experiment [2] (setting [4]) was 18.6 µM throughout.

On to `CO[C@H]1CN(C)C(=O)c2ccc(NC(=O)c3ccc(F)cc3)cc2OC[C@H](C)N(C(=O)c2ccc(F)cc2)C[C@@H]1C`, for which the concentration at half-maximal activity (AC50) in experiment [2] and in experiment [2] (setting [4]) was 15.6 µM throughout.

Consider `C[C@@H](O)C#Cc1ccc2c(c1)O[C@H](CN(C)Cc1ccc(-c3ccccc3)cc1)[C@@H](C)CN([C@@H](C)CO)S2(=O)=O`, for which the AC50 in experiment [2] was 18.9 µM; in experiment [2] (setting [3]), 20.8 µM; in experiment [2] (setting [4]), 18.9 µM. Consider `C[C@@H](O)C#Cc1ccc2c(c1)O[C@@H](CN(C)Cc1ccc(-c3ccccc3)cc1)[C@@H](C)CN([C@@H](C)CO)S2(=O)=O`, for which the AC50 in experiment [2] and in experiment [2] (setting [4]) was 3.67 µM throughout.
